Some test systems named below: M14 melanoma; SNB-19 CNS; HCT-116 colon; OVCAR-3 ovarian; HL-60(TB) leukemia; T-47D breast; HCC-2998 colon; SK-MEL-28 melanoma; CCRF-CEM leukemia; NCI-H522 lung.
Test in all cases: NCI anticancer screen, dose series, 48 h

This note sets out measurements from PubChem BioAssay (NCI).

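Following 48 hours of exposure in 96-well plates, responses at five concentrations were used to interpolate endpoints linearly. GI50: concentration for 50% inhibition of growth. TGI denotes the concentration required for complete inhibition of growth.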

As for `COc1cc(C2=N/C(=C/c3cccs3)C(=O)O2)cc(OC)c1OC`, the TGI in the test with M14 melanoma, in the test with SNB-19 CNS, with HCT-116 colon, with OVCAR-3 ovarian, in the test on HL-60(TB) leukemia and in the test with T-47D breast was greater than 100 µM throughout. Further, the TGI in the test with HCC-2998 colon, in the test with SK-MEL-28 melanoma, with CCRF-CEM leukemia and in the test with NCI-H522 lung was greater than 100 µM throughout.

For `O=C(N/N=C/c1ccc(O)cc1O)c1cccc(Nc2ccnc(C(F)(F)F)c2)c1`, the GI50 with M14 melanoma is 0.925 µM; in the test on SNB-19 CNS it was 1.01 µM; in the test with HCT-116 colon it was 0.535 µM; with OVCAR-3 ovarian it was 0.488 µM; in the test with HL-60(TB) leukemia it was 0.472 µM; with T-47D breast it was 0.66 µM. Moreover, the GI50 was 0.778 µM in the test with HCC-2998 colon, 1.83 µM in the test with SK-MEL-28 melanoma, 0.257 µM in the test on CCRF-CEM leukemia and 1.27 µM in the test on NCI-H522 lung. For the same compound, the TGI in the test on M14 melanoma was 8.5 µM; in the test with SNB-19 CNS, greater than 72.6 µM; in the test on HCT-116 colon, 20.5 µM; in the test on OVCAR-3 ovarian, 30.9 µM; with HL-60(TB) leukemia, 2.98 µM; with T-47D breast it was 15.6 µM. The TGI with HCC-2998 colon was found to be 18.1 µM; with SK-MEL-28 melanoma, 16.6 µM; in the test on CCRF-CEM leukemia, 2.14 µM; in the test on NCI-H522 lung, 22.6 µM.

Consider `[N-]=[N+]=NCCCn1c2c(c3ccc([N+](=O)[O-])cc3c1=O)C(=O)c1cc(F)ccc1-2`, for which the GI50 in the test on M14 melanoma was 1.13 µM; in the test on SNB-19 CNS, 1.05 µM; in the test with HCT-116 colon it was 0.388 µM; in the test with OVCAR-3 ovarian, 3.76 µM; with HL-60(TB) leukemia, 0.202 µM; in the test on T-47D breast, 0.295 µM. Besides, the GI50 in the test with HCC-2998 colon is 14.5 µM; in the test with SK-MEL-28 melanoma it was 11.9 µM; in the test on CCRF-CEM leukemia it was 0.432 µM; with NCI-H522 lung, 0.853 µM. Further, the TGI in the test on M14 melanoma was 11.1 µM; with SNB-19 CNS it was greater than 100 µM; in the test with HCT-116 colon, 3.3 µM; with OVCAR-3 ovarian it was 26 µM; in the test on HL-60(TB) leukemia, 1.64 µM; in the test with T-47D breast it was 3.08 µM. Besides, the TGI with HCC-2998 colon was greater than 100 µM; with SK-MEL-28 melanoma, greater than 100 µM; with CCRF-CEM leukemia, 3.88 µM; with NCI-H522 lung, 12.2 µM.

As to `CN(C)CCNC(=O)Cn1cnc2cccc([N+](=O)[O-])c2c1=O`, the TGI with M14 melanoma, in the test with SNB-19 CNS, in the test with HCT-116 colon, with OVCAR-3 ovarian, in the test on HL-60(TB) leukemia and in the test on T-47D breast was greater than 100 µM in each case. For the same compound, the TGI in the test with HCC-2998 colon, with SK-MEL-28 melanoma, in the test on CCRF-CEM leukemia and with NCI-H522 lung was greater than 100 µM throughout.

In the case of `Cc1cc(-c2ccccn2)cc(C)c1/C=C/c1cncc(-c2nn[nH]n2)c1`, the GI50 in the test on M14 melanoma, with SNB-19 CNS, with HCT-116 colon, in the test with OVCAR-3 ovarian, with HL-60(TB) leukemia and in the test with T-47D breast was greater than 25 µM each time. Further, the GI50 in the test on HCC-2998 colon, in the test with SK-MEL-28 melanoma, in the test with CCRF-CEM leukemia and with NCI-H522 lung was greater than 25 µM in each case. Further, the TGI in the test with M14 melanoma, with SNB-19 CNS, in the test on HCT-116 colon, in the test on OVCAR-3 ovarian, in the test on HL-60(TB) leukemia and with T-47D breast was greater than 25 µM throughout. Further, the TGI in the test with HCC-2998 colon, in the test with SK-MEL-28 melanoma, in the test with CCRF-CEM leukemia and with NCI-H522 lung was greater than 25 µM each time.

On to `COc1cc(-c2csc(NC(=O)Nc3ccc(C(F)(F)F)cc3)n2)cc(OC)c1OC`, for which the GI50 was 2 µM in the test with M14 melanoma; 2.69 µM with SNB-19 CNS; 2.32 µM with HCT-116 colon; 2 µM with OVCAR-3 ovarian; 3.75 µM in the test on HL-60(TB) leukemia; 1.97 µM in the test with T-47D breast. Moreover, the GI50 in the test with HCC-2998 colon is 2.71 µM; with SK-MEL-28 melanoma, 2.22 µM; with CCRF-CEM leukemia, 3.49 µM; in the test on NCI-H522 lung, 1.9 µM. Moreover, the TGI was found to be 5.1 µM with M14 melanoma; 12.3 µM with SNB-19 CNS; 8.16 µM with HCT-116 colon; 5.22 µM with OVCAR-3 ovarian; 8.05 µM in the test on HL-60(TB) leukemia; 7.65 µM with T-47D breast. Also, the TGI in the test with HCC-2998 colon was found to be 9.34 µM; in the test with SK-MEL-28 melanoma, 5.79 µM; in the test with CCRF-CEM leukemia it was 18.9 µM; with NCI-H522 lung, 5.88 µM.

Turning to `O=C1/C(=C/c2ccc(Cl)cc2)CCC/C1=C\c1ccc(Cl)cc1`, the GI50 is 3.04 µM with M14 melanoma; 6.69 µM in the test with SNB-19 CNS; 1.65 µM in the test with HCT-116 colon; 3.03 µM with OVCAR-3 ovarian; 3.56 µM in the test on HL-60(TB) leukemia; 8.76 µM in the test with T-47D breast. Besides, the GI50 was 1.75 µM with HCC-2998 colon, 5.8 µM with SK-MEL-28 melanoma, 3.64 µM with CCRF-CEM leukemia and 2.78 µM with NCI-H522 lung. Moreover, the TGI in the test with M14 melanoma is 8.7 µM; in the test on SNB-19 CNS, greater than 100 µM; with HCT-116 colon it was 3.02 µM; with OVCAR-3 ovarian, 7.77 µM; with HL-60(TB) leukemia it was greater than 100 µM; in the test with T-47D breast, greater than 100 µM. Further, the TGI is 3.19 µM in the test with HCC-2998 colon, greater than 100 µM in the test on SK-MEL-28 melanoma, greater than 100 µM in the test with CCRF-CEM leukemia and 8.52 µM in the test with NCI-H522 lung.

With `CCOC(=O)C#Cc1c(C(=O)OCC)nnn1Cc1ccc([N+](=O)[O-])cc1`, the GI50 was 2.97 µM in the test on M14 melanoma; 18.9 µM in the test with SNB-19 CNS; 2.02 µM with HCT-116 colon; 1.62 µM in the test with HL-60(TB) leukemia; 2.78 µM with T-47D breast; 18.3 µM in the test with HCC-2998 colon. Further, the GI50 was 3.03 µM in the test with SK-MEL-28 melanoma, 1.26 µM in the test with CCRF-CEM leukemia and 1.92 µM with NCI-H522 lung. Also, the TGI in the test on M14 melanoma was 9.13 µM; in the test on SNB-19 CNS, 45.3 µM; with HCT-116 colon, 4.3 µM; in the test on HL-60(TB) leukemia, 5.62 µM; in the test with T-47D breast, 7.65 µM; in the test on HCC-2998 colon it was 32.2 µM. The TGI in the test on SK-MEL-28 melanoma came to 10.2 µM; with CCRF-CEM leukemia, 5 µM; in the test on NCI-H522 lung it was 3.8 µM.
